From US9821173B2, “Anti-cancer agents and methods of use” (Case Western Reserve University, priority 2013, dated 2017) come the findings set out here.

Structures are written as SMILES.

Data set [1] deals with HCT-116. As to the kind of experiment: Cell proliferation assay (cell-titer blue). The format is cell-based. The conditions noted are these: cell viability, up to 48 hours, read-out: IC50 HCT116. The procedure:
(§1) HeLa, MCF-7, HCT-116, and CEM-C7 were obtained from the American Type Culture Collection (Manassas, Va., USA). All adherent cell lines were maintained in Dulbecco's modified Eagle's medium (Mediatech) with 100 U/ml penicillin (Invitrogen), 100 μg/ml streptomycin (Invitrogen), 0.25 μg/ml amphotericin B (Invitrogen), and 10% fetal bovine serum (USA Scientific) and incubated at 37° C. with 5% CO2. CEM cells were maintained in RPMI-1640 media supplemented with 100 U/ml penicillin, 100 μg/ml streptomycin, 0.25 μg/ml amphotericin B, and 10% fetal bovine serum and incubated at 37° C. with […].
(§2) Cells were plated at a density of 7,000-13,000/well in 200 μl of media overnight in a 96-well plate. Each (phosphine)gold(I)-indole was added to wells in a dose-dependent manner (0.01-100 μM). Cells were treated with compounds for variable time periods (8-48 hours). With adherent cell lines, medium was removed from the wells and then 100 μl of fresh medium was added into each well followed by the addition of 20 μl of cell titer-blue reagent (Promega). Cells were incubated with reagent for 1-4 hrs and the optical density of samples was read at 560 nm using a microplate reader. The background absorbance of dye with media was subtracted from each sample. Cell viability was then normalized against cells treated with DMSO. IC50 values were obtained using a fit of the data to Equation 1: Y=100%/[1+(IC50/Inhibitor)] (1)
(§3) where y is the fraction of viable cells, IC50 is the concentration of inhibitor that inhibits 50% cell growth, and Inhibitor is the concentration of compound tested.
(§4) The cellular effects of these (phosphine)gold(I) indoles were tested against several cancer cell lines including HeLa (cervical cancer), MCF-7 (breast cancer), HCT-116 (colon cancer), and CEM-C7 (leukemia). The dose-dependency of each modified indole on cell viability was assessed using a cell-titer blue assay as previously described. In these experiments, cells were exposed to variable concentrations of each (phosphine)gold(I) indole (0.01-100 μM) for up to 48 hours and then assessed for viability.

Data set [2] deals with HeLa. Put plainly: Cell proliferation assay (cell-titer blue). It is filed as cell-based. The conditions noted are these: for IC50: cell viability, cell-titer blue, up to 48 hours. Here is the method:
as §1, §2, §3, §4

Data set [3] has as its system MCF-7. Put plainly: Cell proliferation assay (cell-titer blue). The format is cell-based. The conditions noted are these: cell viability, up to 48 hours. Here is the method: as §1, §2, §3, §4
In data set [4] the test system is CEM-C7. As to the kind of experiment: Cell proliferation / cytotoxicity assay. It is filed as cell-based. The conditions noted are these: for IC50: cell viability, cell-titer blue, up to 48 hours. The procedure:
as §1, §2, §3, §4
Defining this mechanism of cell death is important as necrosis can cause various side-effects including septic shock and kidney failure that can obviously compromise patient health.

Data set [5] concerns HeLa cells. The conditions noted are these: HeLa, data not shown. The procedure:
HeLa cells were plated at a density of 250,000-300,000 cells/mL. After 24 hr cells, the cells were irradiated in a dose dependent manner (0-4 Gy) using a ^137Cs gamma source. After treatment, the cells were trypsinized and plated at a density between 300-4000 cells in 60 mm dishes. Cells were allowed to grow colonies (1 colony≧50 cells) for 10-14 days, stained with 0.25% crystal violet, and manually counted to measure the number of colonies. Survival fractions were normalized against positive controls (colony formation with no radiation) and plotted as the log percent survival versus dose of radiation. Each experiment was performed an average of four (4) times with cells propagated on several different days.
In this case, we measured the effects of combining these (phosphine)gold(I) indoles with ionizing radiation (IR), a widely used therapy used to treat solid tumors. […] After this time frame, media containing the (phosphine)gold(I) indole was removed and replaced with fresh media. The cells were then irradiated in a dose-dependent fashion from 0 to 6 Gy. Cell viability was assessed using a clonogenic assay that measures colony formation and thus accurately defines the cytotoxic effects of IR exposure. […] The initial linear phase is particularly important as this reflects repair of non-lethal damage inflicted by clinically-relevant doses of IR (˜2 Gy).

Data set [6] deals with BSA (Bos taurus, UniProt P02769). As to the kind of experiment: Reactivity of Au(I)-compounds with BSA thiol (DTNB -SH titer). The arrangement: species or system bovine. The conditions noted are these: 120 μM compound, Au(I)/BSA ratios up to 4:1, one hour, 37° C., PBS. Here is the method:
PBS was used as the reaction buffer.
We tested the ability of various Au(I)-complexes to non-selectively react with BSA. […] P2 resin was effective in retaining Au(I)-containing compounds including compound 3 and compound 4. However, BSA was not retained in the resin as >95% of the BSA loaded into the Penefsky column is recovered in the eluant. […] Values obtained from reactions containing BSA incubated with the various Au(I) complexes were compared to identical reactions containing BSA alone and eluted through Penefsky columns.

Broadly, the IC50 is the concentration at which inhibition is half-maximal.

Sequence of BSA (P02769 25-607): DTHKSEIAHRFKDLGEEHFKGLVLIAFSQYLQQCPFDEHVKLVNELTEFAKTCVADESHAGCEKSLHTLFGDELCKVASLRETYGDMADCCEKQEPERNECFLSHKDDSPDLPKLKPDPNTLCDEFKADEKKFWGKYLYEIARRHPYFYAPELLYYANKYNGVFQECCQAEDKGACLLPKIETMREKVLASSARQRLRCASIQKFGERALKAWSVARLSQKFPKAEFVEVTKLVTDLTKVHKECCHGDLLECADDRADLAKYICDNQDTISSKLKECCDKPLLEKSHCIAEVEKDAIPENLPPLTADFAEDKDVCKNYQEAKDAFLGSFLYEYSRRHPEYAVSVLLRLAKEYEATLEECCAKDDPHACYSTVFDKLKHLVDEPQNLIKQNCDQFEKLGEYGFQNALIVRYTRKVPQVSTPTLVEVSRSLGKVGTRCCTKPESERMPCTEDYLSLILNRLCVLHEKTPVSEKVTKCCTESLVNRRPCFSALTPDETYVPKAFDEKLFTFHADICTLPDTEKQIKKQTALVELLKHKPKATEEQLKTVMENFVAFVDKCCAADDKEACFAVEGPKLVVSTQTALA

`Cn1ccc2c[c]([Au-][P+](c3ccccc3-c3ccccc3)(C3CCCCC3)C3CCCCC3)ccc21` [Compound 7, 5-{[1,1′-biphenyl]-2-yldicyclohexylphosphine aurate(I)}-1-methyl-1H-indole]: the half-maximal inhibitory concentration (IC50) is 380 nM in data set [1], 460 nM in data set [2], 3250 nM in data set [3] and 1430 nM in data set [4]. In data set [5], the “enhancement of the cell killing effects of IR” value is given as “do not enhance the cell killing effects of IR”.

For `CC(C)(C)OC(=O)n1ccc2c[c]([Au-][P+](c3ccccc3-c3ccccc3)(C3CCCCC3)C3CCCCC3)ccc21` [Compound 5, 5-{[1,1′-biphenyl]-2-yldicyclohexylphosphine aurate(I)}-tert-butyl H-indole-1-carboxylate], the concentration for half-maximal inhibition (IC50) in data set [1] was 3400 nM; in data set [2], 2400 nM; in data set [3], 2300 nM; in data set [4] it was 2100 nM.

As for `CC(C)(C)C(=O)OCn1ccc2c[c]([Au-][P+](c3ccccc3-c3ccccc3)(C3CCCCC3)C3CCCCC3)ccc21` [Compound 6, 5-{[1,1′-biphenyl]-2-yldicyclohexylphosphine aurate(I)}-(1H-indol-1-yl)methyl pivalate], the IC50 in data set [1] worked out at 1800 nM; in data set [2], 660 nM; in data set [3], 960 nM; in data set [4], 420 nM. In data set [5], the “enhancement of the cell killing effects of IR” value is “do not enhance the cell killing effects of IR”.

Regarding `[Au+].[Br-].c1ccc(P(c2ccccc2)c2ccccc2)cc1` [BrAuPPh3, reference compound], the “anti-cancer (cytostatic or cytotoxic) effects” value in data set [2] (up to the highest concentration of 100 μM) was “does not produce significant cytostatic or cytotoxic effects”. In addition, the “mechanism of cell death (propidium iodide uptake)” value in data set [4] (CEM-C7 cells) is on record as “causes necrosis”. For the same compound, in data set [4] (cytotoxic effect, leukemia cell line CEM-C7), the LD50 amounted to 0.22 ± 0.05 µM. Also, the “reactivity with BSA (relative thiol content, -SH titer)” value in data set [6] is listed as “facile interactions”.
